Experimental data published in ChEMBL document CHEMBL1201862, “PubChem BioAssay data set” (2004).
Values belong to the compound of their own block, whether it stands above or below them. The source made the active and inactive calls.

Assays:
[1] = P. falciparum Dd2 growth inhibitors, dose response, SYBR Green, cherry-picked samples (AID 1159567); type: functional, cell-based
[2] = toxicity to human hepatoma HepG2 cells – cell-based, cherry-picked samples, cytotoxicity control, dose response (AID 1159577); type: functional
[3] = molecular target: NAD-dependent protein deacylase sirtuin-5, mitochondrial (Homo sapiens, UniProt Q9NXA8); assay: sirtuin-5 deacylation blockers, concentration series – biochemical, fluorescence imaging, cherry-pick, set 5, dose response (AID 720591);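 further: desuccinylation of succinyl peptide AMC substrate read as fluorescence after trypsin release; potency of inhibitors that lower fluorescence and may act on trypsin instead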
Kallikrein-7 = Kallikrein-7 (Homo sapiens, UniProt P49862); assay: Fluorescence Intensity-based biochemical primary high throughput dose response assay to identify activators of kallikrein-7 (K7) zymogen.
[4] = molecular target: T1, Sentrin-specific protease 1 (Homo sapiens, UniProt Q9P0U3); assay: Dose response confirmation of small molecule inhibitors of the catalytic domain of the SUMO protease, SENP1 in a FRET assay.; type: functional; conditions: read-out: IC50_Mean
T1 sequence (Q9P0U3 whole entry): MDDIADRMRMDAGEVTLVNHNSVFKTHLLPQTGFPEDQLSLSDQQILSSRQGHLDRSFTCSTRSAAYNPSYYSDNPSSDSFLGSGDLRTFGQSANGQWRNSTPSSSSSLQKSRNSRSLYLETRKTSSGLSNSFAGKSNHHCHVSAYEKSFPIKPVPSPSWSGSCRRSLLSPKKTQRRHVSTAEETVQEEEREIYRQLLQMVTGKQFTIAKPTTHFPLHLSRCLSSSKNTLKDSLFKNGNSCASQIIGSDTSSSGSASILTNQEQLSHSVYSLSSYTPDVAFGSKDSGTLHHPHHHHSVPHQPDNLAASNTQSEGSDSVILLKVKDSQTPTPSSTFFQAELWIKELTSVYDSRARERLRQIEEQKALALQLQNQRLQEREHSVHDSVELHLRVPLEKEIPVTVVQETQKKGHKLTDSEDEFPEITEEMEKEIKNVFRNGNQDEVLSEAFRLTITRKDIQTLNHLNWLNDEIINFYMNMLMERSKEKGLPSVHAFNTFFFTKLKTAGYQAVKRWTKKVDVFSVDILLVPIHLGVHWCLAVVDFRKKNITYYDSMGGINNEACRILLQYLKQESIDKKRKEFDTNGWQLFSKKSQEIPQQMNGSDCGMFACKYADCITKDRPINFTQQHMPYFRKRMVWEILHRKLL

[5] = molecular target: T1, Sentrin-specific protease 1; assay: SENP1 catalytic domain blockers, concentration series – biochemical, kinetic FRET, dose response (AID 651697); type: functional; conditions: read-out: IC50_Mean
[6] = viability loss in THP-1 monocytes – THP-1 cells, cytotoxicity control for Vif-APOBEC3G degradation inhibitor project, dose response (AID 1117359); type: functional; conditions: THP-1
cells [7] = type: functional, cell-based
[8] = molecular target: T2, Trace amine-associated receptor 1 (Homo sapiens, UniProt Q96RJ0); assay: Counterscreen for agonists of the human trace amine associated receptor 1 (hTAAR1): Fluorescence-based cell-based high throughput dose response assay to identify hTAAR1 agonist that also desensitize TAAR1 receptor response.; type: functional
T2 sequence (Q96RJ0 whole entry): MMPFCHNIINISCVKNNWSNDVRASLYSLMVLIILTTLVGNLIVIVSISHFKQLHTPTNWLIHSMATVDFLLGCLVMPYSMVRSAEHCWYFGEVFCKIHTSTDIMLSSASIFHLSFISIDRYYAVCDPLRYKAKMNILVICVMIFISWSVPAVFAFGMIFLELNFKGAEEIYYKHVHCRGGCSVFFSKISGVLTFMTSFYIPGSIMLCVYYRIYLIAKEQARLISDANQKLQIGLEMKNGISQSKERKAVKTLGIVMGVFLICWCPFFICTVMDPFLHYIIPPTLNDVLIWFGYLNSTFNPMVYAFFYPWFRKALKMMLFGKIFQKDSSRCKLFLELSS

[9] = molecular target: T2, Trace amine-associated receptor 1; assay: Fluorescence-based cell-based high throughput dose response assay to identify agonists of the human trace amine associated receptor 1 (TAAR1).; type: functional
cells [10] = type: functional, cell-based; remark: listed apart in the source
[11] = viability inhibitors of stage V gametocytes – luminescence, dose response (AID 1117278); type: functional, cell-based;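 further: gametocytes exposed to compound for 24 hours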
[12] = viability loss in human Jurkat cells – cell-based, luminescence, cytotoxicity control for P. falciparum gametocyte viability project, dose response (AID 1117277); type: functional;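 further: potency reflects loss of cellular ATP meaning fewer viable cells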
[13] = OVCAR8 cell viability loss – plate reader, dry powder samples, PAX8 project, dose response (AID 743197); type: functional, cell-based; conditions: OVCAR-8
[14] = OVCAR-3 cell viability loss – plate reader, dry powder samples, PAX8 inhibitor project, dose response (AID 743044); type: functional, cell-based
[15] = general cell-killing toxicity readout – plate reader, dry powder samples, cytotoxicity control for PAX8 inhibitor project, dose response (AID 743021); type: functional, cell-based
Paired box protein Pax-8 = Paired box protein Pax-8 (Homo sapiens, UniProt Q06710); assay: PAX8 transcriptional activity inhibition in RMG-I – RMG-I cells, luciferase, cherry-pick, dose response (AID 687027); type: functional, cell-based;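 further: luciferase reporter driven by Pax8 target thyroperoxidase promoter measured by SteadyGlo luminescence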
[16] = molecular target: T3, Tyrosyl-DNA phosphodiesterase 2 (Homo sapiens, UniProt O95551); assay: potency against TDP2 phosphodiesterase activity – biochemical, epi absorbance, IC50, dose response (AID 743297)
T3 sequence (O95551 whole entry): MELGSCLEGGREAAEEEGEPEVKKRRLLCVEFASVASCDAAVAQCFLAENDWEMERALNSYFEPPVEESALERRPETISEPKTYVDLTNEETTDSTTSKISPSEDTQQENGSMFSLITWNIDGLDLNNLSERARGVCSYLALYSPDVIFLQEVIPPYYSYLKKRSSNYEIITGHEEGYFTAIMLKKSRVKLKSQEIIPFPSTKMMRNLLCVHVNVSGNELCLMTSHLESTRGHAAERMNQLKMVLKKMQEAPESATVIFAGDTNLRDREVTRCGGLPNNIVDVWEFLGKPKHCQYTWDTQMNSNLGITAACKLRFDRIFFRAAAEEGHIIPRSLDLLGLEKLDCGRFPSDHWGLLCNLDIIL

Chain of NAD-dependent protein deacylase sirtuin-5, mitochondrial (Q9NXA8 whole entry): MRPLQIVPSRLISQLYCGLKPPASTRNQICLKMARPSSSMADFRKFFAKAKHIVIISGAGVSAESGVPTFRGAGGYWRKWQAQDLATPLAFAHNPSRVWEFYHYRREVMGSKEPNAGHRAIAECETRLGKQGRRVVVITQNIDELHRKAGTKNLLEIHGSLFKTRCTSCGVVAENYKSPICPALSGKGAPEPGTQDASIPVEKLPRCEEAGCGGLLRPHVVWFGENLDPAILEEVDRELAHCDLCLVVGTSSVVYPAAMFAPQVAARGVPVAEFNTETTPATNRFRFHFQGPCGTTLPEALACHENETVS
Chain of Kallikrein-7 (P49862 whole entry, the tested form may be a part): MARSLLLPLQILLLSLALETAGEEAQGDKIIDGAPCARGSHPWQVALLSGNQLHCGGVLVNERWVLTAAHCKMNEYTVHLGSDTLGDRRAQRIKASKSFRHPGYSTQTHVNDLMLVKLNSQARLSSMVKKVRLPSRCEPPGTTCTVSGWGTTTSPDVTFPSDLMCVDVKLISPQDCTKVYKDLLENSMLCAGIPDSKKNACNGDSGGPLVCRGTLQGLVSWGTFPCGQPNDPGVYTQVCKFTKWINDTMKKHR
Chain of Paired box protein Pax-8 (Q06710 whole entry): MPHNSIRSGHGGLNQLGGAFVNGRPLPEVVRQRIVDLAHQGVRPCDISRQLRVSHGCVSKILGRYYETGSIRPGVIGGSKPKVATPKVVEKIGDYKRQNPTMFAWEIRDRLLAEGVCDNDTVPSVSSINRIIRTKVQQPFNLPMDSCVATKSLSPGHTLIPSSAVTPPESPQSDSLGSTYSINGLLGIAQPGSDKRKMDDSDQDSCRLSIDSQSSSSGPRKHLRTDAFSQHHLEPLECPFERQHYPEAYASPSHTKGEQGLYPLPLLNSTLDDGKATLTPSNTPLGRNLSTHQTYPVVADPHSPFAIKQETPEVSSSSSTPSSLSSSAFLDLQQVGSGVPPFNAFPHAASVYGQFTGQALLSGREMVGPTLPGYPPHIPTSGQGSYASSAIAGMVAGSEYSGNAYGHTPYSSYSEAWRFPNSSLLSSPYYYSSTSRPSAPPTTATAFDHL

SMILES: COc1ccc2c3c([nH]c2c1)[C@H](CO)N(Cc1ccc(Cl)cc1)CC31CN(Cc2nccs2)C1
AC50 [1]: 4.85 µM (active)
AC50 [2]: 31.9 µM (active)

AC50 [3]: > 30 µM (inactive)
SMILES: O=C1NNC(=O)C1c1ccccc1

EC50 (Kallikrein-7): 22.9 µM (inactive)
SMILES: O=C(Nc1ccc2[nH]c(O)nc2c1)c1c(F)c(F)c(F)c(F)c1F

IC50 [4]: 1.29 µM (active)
IC50 [5]: 4.94 µM (active)
SMILES: CCCCCn1nnnc1-c1nc2cc3ccccc3cc2nc1O

AC50 [3]: > 30 µM (inactive)
SMILES: COCCNC(=O)c1cccc(OC2CCN(Cc3ccc(OC(F)F)cc3)CC2)c1

SMILES: O=C(NNC(=O)c1ccccc1O)c1cc2ccccc2o1
CC50 [6]: 19.2 µM (active)

SMILES: COc1ccc(CCNC(=O)/C=C/C(=O)O)cc1
EC50 (cells [7]): > 29.9 µM (inactive)
IC50 [8]: > 29.9 µM (inactive)
EC50 [9]: 10.4 µM (inactive)
IC50 (cells [10]): > 29.9 µM (inactive)

EC50 (Kallikrein-7): 8.4 µM (active)
SMILES: C[C@H](O)[C@@H]1C(=O)N2CCc3c([nH]c4ccccc34)[C@@H]2C[C@@H]1N(C)C(=O)NC1CCCCC1

SMILES: Cc1cccc(NC(=O)c2csnn2)n1
IC50 [11]: > 109 µM (inactive)
IC50 [12]: > 83.3 µM (inactive)

SMILES: C[C@@H]1CN([C@@H](C)CO)C(=O)Cc2cc(NC(=O)CCCCCC(=O)Nc3ccccc3N)ccc2O[C@@H]1CN(C)Cc1ccc(C(F)(F)F)cc1
AC50 [13]: 18 µM (active)
AC50 [14]: 30.1 µM (active)
AC50 [15]: 45.4 µM (active)
AC50 (Paired box protein Pax-8): 6.87 µM (active)

SMILES: CCCCn1c(NC(=O)c2ccc(Br)o2)c(C(=O)OCC)c2nc3ccccc3nc21
IC50 [16]: > 128 µM (inactive)
